Three compounds from ChEMBL document CHEMBL1201862, “PubChem BioAssay data set” (2004) can be followed below.

Calls of active or inactive are those of the source.

One assay concerns the target Caspase-8 (Homo sapiens, UniProt Q14790). Put plainly: inhibitors of purified CASP8 protease – biochemical, Z-IETD-R110 fluorescence, cherry-picked samples, selectivity assay for caspase-6 inhibitor project, dose response (AID 743294).
For another assay, the target named is T1, Insulin-degrading enzyme (Homo sapiens, UniProt P14735).
T1 sequence (P14735 whole entry): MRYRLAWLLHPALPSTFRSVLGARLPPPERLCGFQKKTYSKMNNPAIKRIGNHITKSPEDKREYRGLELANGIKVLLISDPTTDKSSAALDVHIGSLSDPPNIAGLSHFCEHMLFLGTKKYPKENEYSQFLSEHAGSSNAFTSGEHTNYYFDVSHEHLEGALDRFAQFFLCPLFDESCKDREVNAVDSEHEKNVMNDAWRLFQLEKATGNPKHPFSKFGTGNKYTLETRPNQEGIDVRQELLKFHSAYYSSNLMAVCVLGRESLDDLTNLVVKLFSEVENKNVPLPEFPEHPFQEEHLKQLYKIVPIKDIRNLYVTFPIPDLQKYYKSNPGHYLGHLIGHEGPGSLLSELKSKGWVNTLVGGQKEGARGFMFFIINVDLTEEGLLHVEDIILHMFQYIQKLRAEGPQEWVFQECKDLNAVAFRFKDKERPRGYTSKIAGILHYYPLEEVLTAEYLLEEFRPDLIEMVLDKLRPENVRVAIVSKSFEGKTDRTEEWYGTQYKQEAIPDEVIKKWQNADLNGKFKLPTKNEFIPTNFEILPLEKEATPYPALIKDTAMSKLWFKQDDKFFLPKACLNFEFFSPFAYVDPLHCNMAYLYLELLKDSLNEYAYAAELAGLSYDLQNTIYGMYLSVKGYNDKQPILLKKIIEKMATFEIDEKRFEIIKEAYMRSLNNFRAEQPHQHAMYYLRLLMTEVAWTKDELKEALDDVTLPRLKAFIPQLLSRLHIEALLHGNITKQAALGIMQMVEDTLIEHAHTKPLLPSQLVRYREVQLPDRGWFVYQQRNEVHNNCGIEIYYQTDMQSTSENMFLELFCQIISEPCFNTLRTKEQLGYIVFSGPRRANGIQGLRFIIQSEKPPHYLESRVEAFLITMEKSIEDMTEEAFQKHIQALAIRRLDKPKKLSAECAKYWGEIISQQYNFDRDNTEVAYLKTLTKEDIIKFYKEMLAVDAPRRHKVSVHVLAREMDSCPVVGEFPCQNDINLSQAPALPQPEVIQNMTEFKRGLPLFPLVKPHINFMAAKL
Put plainly: recombinant IDE activation, cell-free – biochemical, fluorescence polarization, counter-screen for IDE activator project, dose response (AID 588681). On the technique in general: Polarisation of emitted light reports the rotation of a fluorescent probe.

Assay [1] has as its target Mitogen-activated protein kinase kinase kinase kinase 5 (Homo sapiens, UniProt Q9Y4K4). The class given is functional.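 Also: measured as one member of a kinome-spanning kinase panel.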
Assay [2] deals with Serine/threonine-protein kinase 17A (Homo sapiens, UniProt Q9UEE5). Type of assay: functional.
For assay [3], the target named is Serine/threonine-protein kinase pim-3 (Homo sapiens, UniProt Q86V86). The class given is functional.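 Also: value obtained as one member of a broad kinase panel profiling effort.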
Assay [4] addresses Calcium/calmodulin-dependent protein kinase type 1 (Homo sapiens, UniProt Q14012). Type of assay: functional.
Assay [5] addresses Cyclin-dependent kinase 1 (Homo sapiens, UniProt P06493). The class given is functional.
The target in assay [6] is Casein kinase II subunit alpha (Homo sapiens, UniProt P68400). The class given is functional.
Assay [7] addresses Fibroblast growth factor receptor 3 (Homo sapiens, UniProt P22607). Type of assay: functional.
Assay [8] has as its target Testis-specific serine/threonine-protein kinase 2 (Homo sapiens, UniProt Q96PF2). Type of assay: functional.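 Also: part of the Navigating the Kinome panel, target entry STK22B.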
For assay [9], the target named is Serine/threonine-protein kinase PAK 1 (Homo sapiens, UniProt Q13153). The class given is functional.
A further assay concerns the target Misshapen-like kinase 1 (Homo sapiens, UniProt Q8N4C8). Type of assay: functional.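 Also: kinome panel screen with MINK as the panel member.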
Assay [10] addresses Serine/threonine-protein kinase D2 (Homo sapiens, UniProt Q9BZL6). Type of assay: functional.
In assay [11] the target is Ribosomal protein S6 kinase beta-1 (Homo sapiens, UniProt P23443). The class given is functional.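 Also: measured as one member of a kinome-wide profiling panel.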
In assay [12] the target is Serine/threonine-protein kinase BRSK1 (Homo sapiens, UniProt Q8TDC3). The class given is functional.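 Also: measured within a kinome-wide kinase panel, with the target listed as KIAA1811.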
The target of assay [13] is MAP/microtubule affinity-regulating kinase 3 (Homo sapiens, UniProt P27448). Type of assay: functional.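 Also: MARK3 affinity measured as one member of a kinome panel.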
Assay [14] has as its target Calcium/calmodulin-dependent protein kinase type II subunit delta (Homo sapiens, UniProt Q13557). Type of assay: functional.
Assay [15] has as its target MAP kinase-interacting serine/threonine-protein kinase 2 (Homo sapiens, UniProt Q9HBH9). The class given is functional.
Assay [16] concerns the target STE20-like serine/threonine-protein kinase (Homo sapiens, UniProt Q9H2G2). The class given is functional.
Assay [17] concerns the target Serine/threonine-protein kinase Chk2 (Homo sapiens, UniProt O96017). Type of assay: functional.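 Also: CHEK2 entry within a kinome-wide screening panel.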
The target in assay [18] is Mitogen-activated protein kinase 1 (Homo sapiens, UniProt P28482). The class given is functional.
Assay [19] deals with Lymphokine-activated killer T-cell-originated protein kinase (Homo sapiens, UniProt Q96KB5). Type of assay: functional.
Assay [20] concerns the target Vascular endothelial growth factor receptor 3 (Homo sapiens, UniProt P35916). Type of assay: functional.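 Also: value from a kinome-wide profiling panel, with FLT4 as the panel member.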
Assay [21] concerns the target Serine/threonine-protein kinase PLK1 (Homo sapiens, UniProt P53350). Type of assay: functional.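 Also: PLK1 measured as one member of a kinome-wide profiling panel.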
For assay [22], the target named is RAC-gamma serine/threonine-protein kinase (Homo sapiens, UniProt Q9Y243). Type of assay: functional.
In assay [23] the target is Serine/threonine-protein kinase PLK3 (Homo sapiens, UniProt Q9H4B4). Type of assay: functional.
Assay [24] has as its target Tyrosine-protein kinase Fer (Homo sapiens, UniProt P16591). Type of assay: functional.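 Also: FER tested as one member of a kinome panel.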

STE20-like serine/threonine-protein kinase, sequence (Q9H2G2 whole entry): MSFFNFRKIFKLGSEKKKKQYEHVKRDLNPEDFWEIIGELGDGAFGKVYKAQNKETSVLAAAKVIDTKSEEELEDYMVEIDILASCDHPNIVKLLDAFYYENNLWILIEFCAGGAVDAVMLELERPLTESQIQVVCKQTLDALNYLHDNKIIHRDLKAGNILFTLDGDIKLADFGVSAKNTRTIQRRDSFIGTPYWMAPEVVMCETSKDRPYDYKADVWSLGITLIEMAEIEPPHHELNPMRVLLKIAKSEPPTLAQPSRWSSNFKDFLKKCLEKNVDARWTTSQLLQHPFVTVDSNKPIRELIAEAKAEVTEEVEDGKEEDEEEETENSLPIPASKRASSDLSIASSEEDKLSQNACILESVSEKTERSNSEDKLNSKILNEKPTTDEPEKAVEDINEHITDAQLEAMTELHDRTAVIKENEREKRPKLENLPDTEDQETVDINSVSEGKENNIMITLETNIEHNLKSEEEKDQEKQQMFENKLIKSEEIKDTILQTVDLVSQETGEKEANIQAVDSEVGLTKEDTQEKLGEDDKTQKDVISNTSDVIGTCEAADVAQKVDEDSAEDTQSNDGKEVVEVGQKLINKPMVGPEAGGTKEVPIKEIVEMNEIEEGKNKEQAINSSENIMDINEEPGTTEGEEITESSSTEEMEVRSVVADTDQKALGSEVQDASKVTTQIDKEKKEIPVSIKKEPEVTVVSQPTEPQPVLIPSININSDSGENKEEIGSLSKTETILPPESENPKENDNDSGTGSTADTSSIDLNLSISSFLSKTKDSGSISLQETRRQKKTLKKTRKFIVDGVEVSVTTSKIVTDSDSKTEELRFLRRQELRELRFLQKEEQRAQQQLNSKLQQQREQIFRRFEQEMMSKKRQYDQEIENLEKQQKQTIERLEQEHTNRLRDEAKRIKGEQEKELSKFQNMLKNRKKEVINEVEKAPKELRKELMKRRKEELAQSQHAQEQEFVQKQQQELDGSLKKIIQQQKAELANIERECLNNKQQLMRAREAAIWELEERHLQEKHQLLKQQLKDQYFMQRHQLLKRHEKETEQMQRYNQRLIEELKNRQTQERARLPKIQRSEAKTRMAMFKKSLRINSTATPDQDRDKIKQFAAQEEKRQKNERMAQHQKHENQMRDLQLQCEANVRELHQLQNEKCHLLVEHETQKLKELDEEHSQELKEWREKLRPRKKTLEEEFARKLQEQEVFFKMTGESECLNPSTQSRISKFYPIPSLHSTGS
Ribosomal protein S6 kinase beta-1, sequence (P23443 whole entry): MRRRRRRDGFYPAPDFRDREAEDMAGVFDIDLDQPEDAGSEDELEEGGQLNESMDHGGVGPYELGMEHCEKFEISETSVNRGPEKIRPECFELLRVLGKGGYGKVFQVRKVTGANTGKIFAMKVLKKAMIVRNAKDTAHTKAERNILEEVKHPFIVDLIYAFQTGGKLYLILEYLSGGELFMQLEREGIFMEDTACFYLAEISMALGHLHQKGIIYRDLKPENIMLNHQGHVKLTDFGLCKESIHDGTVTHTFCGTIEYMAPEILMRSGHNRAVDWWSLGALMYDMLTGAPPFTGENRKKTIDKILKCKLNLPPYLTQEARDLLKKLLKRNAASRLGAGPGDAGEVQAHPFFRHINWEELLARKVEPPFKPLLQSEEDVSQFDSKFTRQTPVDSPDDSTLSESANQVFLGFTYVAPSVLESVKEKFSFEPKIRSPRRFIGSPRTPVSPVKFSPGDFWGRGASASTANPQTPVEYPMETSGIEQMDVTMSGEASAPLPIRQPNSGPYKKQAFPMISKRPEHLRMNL
Misshapen-like kinase 1, sequence (Q8N4C8 whole entry): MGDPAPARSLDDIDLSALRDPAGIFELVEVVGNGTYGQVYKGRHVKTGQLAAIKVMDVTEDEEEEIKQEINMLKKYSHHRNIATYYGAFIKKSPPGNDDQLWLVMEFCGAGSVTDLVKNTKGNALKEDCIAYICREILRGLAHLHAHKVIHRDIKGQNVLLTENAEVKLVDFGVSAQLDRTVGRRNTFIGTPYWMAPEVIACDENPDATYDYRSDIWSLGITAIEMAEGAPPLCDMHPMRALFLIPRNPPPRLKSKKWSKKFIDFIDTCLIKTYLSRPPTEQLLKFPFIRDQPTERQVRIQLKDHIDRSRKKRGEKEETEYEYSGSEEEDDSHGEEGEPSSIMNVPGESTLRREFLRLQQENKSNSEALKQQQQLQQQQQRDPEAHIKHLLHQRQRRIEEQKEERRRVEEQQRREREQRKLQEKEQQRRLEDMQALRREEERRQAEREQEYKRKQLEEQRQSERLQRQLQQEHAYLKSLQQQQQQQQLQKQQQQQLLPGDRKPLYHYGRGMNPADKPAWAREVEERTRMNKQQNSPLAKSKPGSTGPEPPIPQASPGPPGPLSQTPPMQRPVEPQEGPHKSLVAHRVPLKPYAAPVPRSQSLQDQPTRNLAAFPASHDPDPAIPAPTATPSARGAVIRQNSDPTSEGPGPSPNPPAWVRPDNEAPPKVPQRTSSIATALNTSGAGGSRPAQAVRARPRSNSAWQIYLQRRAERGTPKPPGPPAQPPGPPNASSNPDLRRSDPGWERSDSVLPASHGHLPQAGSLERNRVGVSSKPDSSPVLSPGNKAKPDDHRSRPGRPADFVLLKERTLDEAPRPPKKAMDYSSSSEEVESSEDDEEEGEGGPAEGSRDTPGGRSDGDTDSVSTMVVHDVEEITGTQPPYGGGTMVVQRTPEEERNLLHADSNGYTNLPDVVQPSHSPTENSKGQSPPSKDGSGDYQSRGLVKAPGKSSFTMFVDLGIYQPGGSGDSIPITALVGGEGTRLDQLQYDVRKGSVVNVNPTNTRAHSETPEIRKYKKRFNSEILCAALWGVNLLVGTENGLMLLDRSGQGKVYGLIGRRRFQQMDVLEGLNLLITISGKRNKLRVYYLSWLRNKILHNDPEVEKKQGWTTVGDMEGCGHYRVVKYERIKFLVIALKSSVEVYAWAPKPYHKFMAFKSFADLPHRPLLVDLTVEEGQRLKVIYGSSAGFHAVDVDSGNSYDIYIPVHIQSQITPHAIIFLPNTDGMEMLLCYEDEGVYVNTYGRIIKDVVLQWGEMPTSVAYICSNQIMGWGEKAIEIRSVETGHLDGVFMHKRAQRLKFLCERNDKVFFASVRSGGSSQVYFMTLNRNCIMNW
Vascular endothelial growth factor receptor 3, sequence (P35916 whole entry): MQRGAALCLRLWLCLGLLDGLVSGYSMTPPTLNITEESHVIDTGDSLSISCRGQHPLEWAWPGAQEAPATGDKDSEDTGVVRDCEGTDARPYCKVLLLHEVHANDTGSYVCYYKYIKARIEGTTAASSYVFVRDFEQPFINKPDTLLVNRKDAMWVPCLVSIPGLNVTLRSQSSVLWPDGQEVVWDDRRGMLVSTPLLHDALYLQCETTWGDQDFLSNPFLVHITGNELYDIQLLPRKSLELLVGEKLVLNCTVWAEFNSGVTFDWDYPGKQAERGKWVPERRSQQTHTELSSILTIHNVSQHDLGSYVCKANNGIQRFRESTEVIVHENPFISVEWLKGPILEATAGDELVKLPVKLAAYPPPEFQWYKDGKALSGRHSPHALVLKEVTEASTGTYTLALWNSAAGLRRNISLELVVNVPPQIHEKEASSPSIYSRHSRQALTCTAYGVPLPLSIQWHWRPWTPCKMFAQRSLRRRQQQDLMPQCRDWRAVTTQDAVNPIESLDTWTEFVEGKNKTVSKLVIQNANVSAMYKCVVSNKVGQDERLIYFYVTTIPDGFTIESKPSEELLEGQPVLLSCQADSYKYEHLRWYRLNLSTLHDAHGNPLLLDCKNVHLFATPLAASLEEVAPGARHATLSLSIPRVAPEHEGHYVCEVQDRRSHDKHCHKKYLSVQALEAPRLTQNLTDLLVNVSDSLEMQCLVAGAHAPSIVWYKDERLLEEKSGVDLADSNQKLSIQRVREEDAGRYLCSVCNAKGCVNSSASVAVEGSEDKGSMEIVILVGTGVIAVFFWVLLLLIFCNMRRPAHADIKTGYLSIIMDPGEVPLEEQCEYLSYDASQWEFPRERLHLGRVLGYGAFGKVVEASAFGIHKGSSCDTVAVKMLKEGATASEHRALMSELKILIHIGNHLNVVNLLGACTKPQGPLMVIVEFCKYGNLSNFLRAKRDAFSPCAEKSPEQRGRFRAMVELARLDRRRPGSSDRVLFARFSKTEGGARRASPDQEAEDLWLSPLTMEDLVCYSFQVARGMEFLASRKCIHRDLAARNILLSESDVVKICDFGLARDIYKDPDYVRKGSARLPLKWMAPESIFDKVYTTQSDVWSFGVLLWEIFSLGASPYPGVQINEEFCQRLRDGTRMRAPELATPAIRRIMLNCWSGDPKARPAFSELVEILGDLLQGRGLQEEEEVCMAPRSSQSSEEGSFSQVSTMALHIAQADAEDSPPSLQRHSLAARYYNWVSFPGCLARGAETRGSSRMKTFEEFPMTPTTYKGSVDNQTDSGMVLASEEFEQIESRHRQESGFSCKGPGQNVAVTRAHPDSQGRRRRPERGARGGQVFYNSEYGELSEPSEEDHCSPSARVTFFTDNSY
Serine/threonine-protein kinase 17A, sequence (Q9UEE5 whole entry): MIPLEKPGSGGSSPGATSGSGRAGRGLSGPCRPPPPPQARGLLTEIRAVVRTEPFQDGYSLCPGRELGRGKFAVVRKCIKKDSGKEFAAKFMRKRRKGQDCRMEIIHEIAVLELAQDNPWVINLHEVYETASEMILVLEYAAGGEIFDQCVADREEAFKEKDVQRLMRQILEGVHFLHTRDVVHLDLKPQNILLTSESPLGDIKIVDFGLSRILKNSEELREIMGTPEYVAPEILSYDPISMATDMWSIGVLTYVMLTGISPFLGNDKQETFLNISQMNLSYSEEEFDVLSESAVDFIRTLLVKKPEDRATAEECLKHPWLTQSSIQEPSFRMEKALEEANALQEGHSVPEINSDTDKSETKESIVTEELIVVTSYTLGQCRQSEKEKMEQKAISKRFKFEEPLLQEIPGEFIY

Turning to `O=C(COC(=O)c1ccc([N+](=O)[O-])s1)Nc1ccc(F)cc1`, on Caspase-8, the AC50 (usually the concentration at which the activity in the assay is half-maximal) was 18.6 µM (active).
In the case of `CCN(CC)CCCC(C)n1c2nc(=O)[nH]c(=O)c-2nc2cc(Cl)ccc21` (stereo not given), the EC50 (in general, the concentration needed to bring the measured effect to its halfway point) at Insulin-degrading enzyme was > 54.7 µM (inactive).
With `OC1CCC(Nc2nc(Cl)cc(-c3c[nH]c4ncccc34)n2)CC1` (stereo not given), the Ki – broadly, a measure of affinity in units of concentration, obtained from inhibition or displacement – in assay [1] was 0.0794 µM (active); in assay [2], 0.0398 µM (active); in assay [3], 3.16 µM (active); in assay [4] it was > 0.794 µM (inactive); in assay [5], 0.0398 µM (active); in assay [6] it was 0.158 µM (active). The Ki in [7] was > 2 µM (inactive); in assay [8], > 1.58 µM (inactive); in [9], 1.26 µM (active); on Misshapen-like kinase 1, 0.00316 µM (active); in assay [10], 0.02 µM (active); in assay [11], 0.1 µM (active). Also, the Ki is 1 µM (active) in [12]; 0.0501 µM (active) in assay [13]; 0.0631 µM (active) in assay [14]; 0.0398 µM (active) in assay [15]; 0.501 µM (active) in assay [16]; > 1.58 µM (inactive) in [17]. The Ki is 0.0501 µM (active) in assay [18]; 3.16 µM (active) in assay [19]; 0.2 µM (active) in assay [20]; 0.251 µM (active) in [21]; > 10 µM (inactive) in [22]; > 7.94 µM (inactive) in assay [23]. In assay [24], the Ki was 0.2 µM (active). Besides, the pKi (usually the negative decadic logarithm of the Ki, by convention in mol/L) stood at 7.1 in assay [1]; 7.4 in assay [2]; 5.5 in assay [3]; 7.4 in assay [5]; 6.8 in [6]; 5.9 in assay [9]. The pKi at Misshapen-like kinase 1 amounted to 8.5; in assay [10], 7.7; in assay [11] it was 7; in assay [12] it was 6; in [13] it was 7.3; in assay [14], 7.2. The pKi is on record as 7.4 in assay [15]; 6.3 in [16]; 7.3 in assay [18]; 6.7 in assay [20]; 6.6 in assay [21]; 6.7 in assay [24].
